Test results from patent US20250243174A1, “ANTITUMORAL COMPOUNDS” (PHARMA MAR, S.A., priority 2021, published 2025).

Key:
PSN-1 = test: SRB colorimetric cytotoxicity assay, PSN-1; type: cell-based; conditions: Homo sapiens, PSN1, 72 h, read-out: GI50 (M) PSN-1
Excerpt: (§1) The aim of this assay is to evaluate the in vitro cytostatic (ability to delay or arrest tumor cell growth) or cytotoxic (ability to kill tumor cells) activity of the samples being tested.
(§2) A colorimetric assay, using sulforhodamine B (SRB) reaction has been adapted to provide a quantitative measurement of cell growth and viability (using the technique developed by Skehan et al., J. Natl. Cancer Inst. 1990 and following the protocol detailed in V. Vichai and K. Kirtikara (2006) Nature Protoc. 1, 1112-1116.)
(§3) This form of assay employs 96-well cell culture microplates. All the cell lines used in this study were obtained from the American Type Culture Collection (ATCC), unless otherwise indicated, and derive from different types of human cancer.
(§4) Cells were maintained in Dulbecco's Modified Eagle Medium (DMEM) (for A549, HT-29 and MDA-MB-231) or RPMI (for PSN-1) supplemented with 10% Fetal Bovine Serum (FBS), 2 mM L-glutamine, 100 U/mL penicillin and 100 U/mL streptomycin at 37° C., 5% CO2 and 98% humidity. For the experiments, cells were harvested from subconfluent cultures using trypsinization and resuspended in fresh medium before counting and plating.
(§5) Cells were seeded in 96 well microtiter plates, at 5×10^3 cells per well in aliquots of 150 μL, and allowed to attach to the plate surface for 18 hours (overnight) in drug free medium. After that, one control (untreated) plate of each cell line was fixed (as described below) and used for time zero reference value. Culture plates were then treated with test compounds (50 μL aliquots of 4× concentrated compound stock solutions made in complete culture medium) using ten serial dilutions (concentrations ranging from […]) and triplicate cultures (final concentration of DMSO being 1%). After 72 hours treatment, the antitumor effect was measured by using the SRB methodology: Briefly, cells were washed twice with PBS, fixed for 15 min in 1% glutaraldehyde solution at room temperature, rinsed twice in PBS, and stained in 0.4% SRB solution for 30 min at room temperature. Cells were then rinsed several times with 1% acetic acid solution and air-dried at room temperature. SRB was then extracted in 10 mM trizma base solution and the absorbance measured in an automated spectrophotometric plate reader at 490 nm. Effects on cell growth and survival were estimated by applying the NCI algorithm (Boyd M R and Paull K D. Drug Dev. Res. 1995, 34, 91-104).
(§6) Using the mean±SD of triplicates, a dose-response curve was automatically generated using nonlinear regression analysis to a 4-parameter logistic curve. Three reference parameters were calculated (NCI algorithm) by automatic interpolation: GI50=compound concentration that produces […] cell growth inhibition, as compared to control cultures.

[1] = MTMD (Maximum Tolerated Multiple Dose) determination; type: in vivo; conditions: iv, Q7dx3; female athymic nude mice
Protocol: (§7) Female Athymic Nude-Fox1 nu/nu mice (Envigo) were utilized for all experiments. Animals (N=10/cage) were housed in individually ventilated cages (Sealsafe Plus®, Techniplast S.P.A.), on a 12-hour light-dark cycle at 21-23° C. and 40-60% humidity. Mice were allowed free access to irradiated standard rodent diet (Tecklad 2914C) and sterilized water. Animals were acclimated for five days prior to being individually tattoo-identified. Animal protocols were reviewed and approved according to the regional Institutional Animal Care and Use Committees.
(§8) Mice were randomly allocated into experimental groups and intravenously administered, once for the MTD (Maximum Tolerated Dose) determination or one administration a week during three consecutive weeks, for the MTMD (Maximum Tolerated Multiple Dose) determination study. The animals were administered with white formulation or with compound dissolved in the experimental formulation at different concentrations. The volume administered was always 10 mL/kg. Once administered, animals were monitored for clinical signs of systemic toxicity, changes in body weight and mortality up to 14 days after the administration.

A549 = test: SRB colorimetric cytotoxicity assay, A549; type: cell-based; conditions: Homo sapiens, A549, 72 h, read-out: GI50 (M) A549
Excerpt: as §1, §2, §3, §4, §5, §6

H460 xenografts = test: Comparative Example, in vivo H460 xenograft (PM050489); parameters: species or system mice; conditions: 0.08 mg/kg iv
Protocol: H460 cells were maintained in vitro at 37° C. with 5% CO2 in Dulbecco's Modified Eagle's Medium (Sigma-Aldrich, Co). Culture cells were passaged every 3 to 5 days upon reaching confluence. Each animal was subcutaneously implanted (on the right flank using 26G needle and a 1 cc syringe) at 4-6 weeks of age with 5×10^6 H460 cells suspended in 0.05 mL of a solution consisting of 50% Matrigel (Corning Incorporated Life Sciences) and 50% medium without serum or antibiotics.
Antitumor activity of PM050489 was evaluated in one human tumor model, NSCLC (H460) xenografted in immunodepressed mice. All treatments were intravenously administered at their MTD.
When tumors reached ca. 150-200 mm^3, tumor bearing animals (N=10/group) were randomly allocated into the following treatment groups: • PM050489 (0.08 mg/kg) • Placebo
Treatments were intravenously administered once per week for 2 consecutive weeks (days 0 and 7).
Tumor dimensions and body weights were recorded 3 times per week starting from the first day of treatment (Day 0). Treatments producing >20% lethality and/or 20% net body weight loss were considered toxic. Tumor volume was calculated using the equation (a·b^2)/2, where a and b were the longest and shortest diameters, respectively. Animals were euthanized when their tumors reached ca. 2,000 mm^3 and/or severe necrosis was seen. Median, mean and SD were calculated for tumor volume on each measurement day.
Antitumor effect was calculated by using ΔT/ΔC (%) and tumor growth delay (TGD). ΔT/ΔC was defined as a percentage of the change in tumor volume for each treated (T) and placebo (C) group. ΔT/ΔC was calculated immediately before the 2nd dose and on the 4th week of the study. TGD was expressed as a percentage by which the treated group volume was delayed and calculated by applying [(Dt−Dc)/Dc]100, where […] were the median times in days for treated and control groups in attaining a specified volume, fixed as 1,000 mm^3.
Treatment tolerability was assessed by monitoring body weight evolution, clinical signs as well as evidences of local damage in the injection site.

MDA-MB-231 = test: SRB colorimetric cytotoxicity assay, MDA-MB-231; type: cell-based; conditions: Homo sapiens, MDA-MB-231, 72 h, read-out: GI50 (M) MDA-MB-231
Excerpt: as §1, §2, §3, §4, §5, §6

[2] = MTD (Maximum Tolerated Dose) determination; conditions: Athymic Nude-Fox1 nu/nu, mouse, in vivo; iv, single dose; female athymic nude mice
Protocol: as §7, §8

HT29 = test: SRB colorimetric cytotoxicity assay, HT29; type: cell-based; conditions: Homo sapiens, HT-29, 72 h, read-out: GI50 (M) HT29
Excerpt: as §1, §2, §3, §4, §5, §6

SMILES: COC1=CC[C@@H]([C@@H](C)/C=C(C)/C=C\C=C/C(=O)N[C@H](C(=O)N/C=C\C[C@H](C/C=C(\C)Cl)OC(N)=O)C(C)(C)C)OC1=O [PM050489, reference compound]
- GI50 (PSN-1): 1.9e-10 M
- MTMD [1]: 0.075 mg/kg
- GI50 (A549): 8.59e-11 M
- treatment tolerability (H460 xenografts): prematurely finished because of severe necrosis in the tumor masses and/or decreases in body weight values
- ΔT/ΔC (%) Day 7 (H460 xenografts; days 0 and 7, Day 7): 103.5%
- TGD (%) (H460 xenografts; tumor growth delay, target volume 1,000 mm^3): 40.0%
- GI50 (MDA-MB-231): 1.37e-10 M
- MTD at 14 days [2]: 0.075 mg/kg
- GI50 (HT29): 3.91e-11 M
